Results published in ChEMBL document CHEMBL4715753, “Bridging computational modeling with amino acid replacements to investigate GHS-R1a-peptidomimetic recognition” (Eur J Med Chem, 2016).

Biological target: Growth hormone secretagogue receptor type 1 (Homo sapiens, UniProt Q92847)
Assay: Displacement of [125I-His9]-ghrelin from GHS-R1a (unknown origin) expressed in human HEK293 cells incubated for 20 mins by gamma scintillation counting method
Type: cell-based

Growth hormone secretagogue receptor type 1, sequence (Q92847 whole entry): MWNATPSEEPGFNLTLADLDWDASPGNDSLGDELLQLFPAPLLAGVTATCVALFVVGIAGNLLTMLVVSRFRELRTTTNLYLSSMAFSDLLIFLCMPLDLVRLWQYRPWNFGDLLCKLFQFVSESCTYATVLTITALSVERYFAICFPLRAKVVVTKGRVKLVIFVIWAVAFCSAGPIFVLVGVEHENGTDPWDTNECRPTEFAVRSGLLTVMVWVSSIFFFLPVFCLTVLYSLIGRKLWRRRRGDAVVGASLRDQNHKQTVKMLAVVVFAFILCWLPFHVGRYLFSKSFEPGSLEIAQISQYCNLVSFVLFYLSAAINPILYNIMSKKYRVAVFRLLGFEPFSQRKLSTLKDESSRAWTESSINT

SMILES | IC50 [nM]
C[C@H](NC(=O)C1CCNCC1)C(=O)N[C@H](Cc1ccc2ccccc2c1)C(=O)N[C@@H](Cc1ccccc1)C(=O)N[C@@H](CCCCN)C(N)=O | > 10000
NCCCC[C@H](NC(=O)[C@H](Cc1ccncc1)NC(=O)[C@@H](Cc1ccc2ccccc2c1)NC(=O)[C@@H](Cc1ccc2ccccc2c1)NC(=O)C1CCNCC1)C(N)=O | 25
